ChEMBL document CHEMBL1201862, “PubChem BioAssay data set” (2004)
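Briefly, cells in 96-well plates were exposed to five compound concentrations for 48 h, and endpoints were estimated by linear interpolation. GI50 = concentration required for 50% inhibition of growth.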 Calls of active or inactive are those of the source. Rule as the data show it: active = GI50 up to about 1.1 µM and inactive = higher.

What was measured:
Test in all cases: DTP human tumour cell line panel, 48 h
SF-539 = test system: SF-539
IGROV-1 = test system: IGROV-1
MDA-MB-231 = test system: MDA-MB-231
KM12 = test system: KM12
NCI/ADR-RES = test system: NCI/ADR-RES
NCI-H460 = test system: NCI-H460
PC-3 = test system: PC-3
HCC 2998 = test system: HCC 2998
CCRF-CEM = test system: CCRF-CEM
SF-295 = test system: SF-295
HOP-92 = test system: HOP-92
DU-145 = test system: DU-145
MCF7 = test system: MCF7
RPMI-8226 = test system: RPMI-8226
SK-OV-3 = test system: SK-OV-3
T47D = test system: T47D
OVCAR-8 = test system: OVCAR-8
HT-29 = test system: HT-29
UACC-257 = test system: UACC-257
SF-268 = test system: SF-268
LOX IMVI = test system: LOX IMVI
NCI-H23 = test system: NCI-H23
SNB-75 = test system: SNB-75
SN12C = test system: SN12C
EKVX = test system: EKVX
SNB-19 = test system: SNB-19
NCI-H522 = test system: NCI-H522
RXF 393 = test system: RXF 393
OVCAR-4 = test system: OVCAR-4
SW-620 = test system: SW-620
M14 = test system: M14
SK-MEL-28 = test system: SK-MEL-28
UACC-62 = test system: UACC-62
U-251 = test system: U-251
K562 = test system: K562
COLO 205 = test system: COLO 205
TK-10 = test system: TK-10
UO-31 = test system: UO-31
MDA-N = test system: MDA-N
SR = test system: SR
BT-549 = test system: BT-549
OVCAR-3 = test system: OVCAR-3
HCT-116 = test system: HCT-116
786-0 = test system: 786-0
HL-60 = test system: HL-60
HOP-62 = test system: HOP-62
MOLT-4 = test system: MOLT-4
A549 = test system: A549
OVCAR-5 = test system: OVCAR-5
HCT-15 = test system: HCT-15
SK-MEL-5 = test system: SK-MEL-5
NCI-H226 = test system: NCI-H226
MDA-MB-435 = test system: MDA-MB-435
SK-MEL-2 = test system: SK-MEL-2
CAKI-1 = test system: CAKI-1
ACHN = test system: ACHN
A498 = test system: A498
Malme-3M = test system: Malme-3M
Hs-578T = test system: Hs-578T

Compound: OCCOCn1nc(-c2ccccc2)nc1-c1cnccn1
- GI50 (SF-539): > 100 µM (inactive)
- GI50 (IGROV-1): > 100 µM (inactive)
- GI50 (MDA-MB-231): > 100 µM (inactive)
- GI50 (KM12): > 100 µM (inactive)
- GI50 (NCI/ADR-RES): > 100 µM (inactive)
- GI50 (NCI-H460): > 100 µM (inactive)
- GI50 (PC-3): > 100 µM (inactive)
- GI50 (HCC 2998): > 100 µM (inactive)
- GI50 (CCRF-CEM): > 100 µM (inactive)
- GI50 (SF-295): > 100 µM (inactive)
- GI50 (HOP-92): > 100 µM (inactive)
- GI50 (DU-145): > 100 µM (inactive)
- GI50 (MCF7): > 100 µM (inactive)
- GI50 (RPMI-8226): > 100 µM (inactive)
- GI50 (SK-OV-3): > 100 µM (inactive)
- GI50 (T47D): > 100 µM (inactive)
- GI50 (OVCAR-8): > 100 µM (inactive)
- GI50 (HT-29): > 100 µM (inactive)
- GI50 (UACC-257): > 100 µM (inactive)
- GI50 (SF-268): > 100 µM (inactive)
- GI50 (LOX IMVI): > 100 µM (inactive)
- GI50 (NCI-H23): > 100 µM (inactive)
- GI50 (SNB-75): 35 µM (inactive)
- GI50 (SN12C): > 100 µM (inactive)
- GI50 (EKVX): > 100 µM (inactive)
- GI50 (SNB-19): > 100 µM (inactive)
- GI50 (NCI-H522): > 100 µM (inactive)
- GI50 (RXF 393): > 100 µM (inactive)
- GI50 (OVCAR-4): > 100 µM (inactive)
- GI50 (SW-620): > 100 µM (inactive)
- GI50 (M14): > 100 µM (inactive)
- GI50 (SK-MEL-28): > 100 µM (inactive)
- GI50 (UACC-62): > 100 µM (inactive)
- GI50 (U-251): > 100 µM (inactive)
- GI50 (K562): > 100 µM (inactive)
- GI50 (COLO 205): > 100 µM (inactive)
- GI50 (TK-10): > 100 µM (inactive)
- GI50 (UO-31): > 100 µM (inactive)
- GI50 (MDA-N): > 100 µM (inactive)
- GI50 (SR): > 100 µM (inactive)
- GI50 (BT-549): > 100 µM (inactive)
- GI50 (OVCAR-3): > 100 µM (inactive)
- GI50 (HCT-116): > 100 µM (inactive)
- GI50 (786-0): > 100 µM (inactive)
- GI50 (HL-60): > 100 µM (inactive)
- GI50 (HOP-62): > 100 µM (inactive)
- GI50 (MOLT-4): > 100 µM (inactive)
- GI50 (A549): > 100 µM (inactive)
- GI50 (OVCAR-5): > 100 µM (inactive)
- GI50 (HCT-15): > 100 µM
- GI50 (SK-MEL-5): > 100 µM (inactive)

Compound: C=C[C@@]1(C)CC(=O)[C@]2(O)[C@@]3(C)[C@@H](OC(C)=O)CCC(C)(C)[C@@H]3[C@H](OC(C)=O)[C@H](OC(C)=O)[C@@]2(C)O1
- GI50 (SF-539): > 100 µM (inactive)
- GI50 (IGROV-1): 56.6 µM (inactive)
- GI50 (MDA-MB-231): > 100 µM (inactive)
- GI50 (KM12): 36.1 µM (inactive)
- GI50 (NCI-H226): > 100 µM (inactive)
- GI50 (NCI/ADR-RES): > 100 µM (inactive)
- GI50 (NCI-H460): > 100 µM (inactive)
- GI50 (MDA-MB-435): > 100 µM (inactive)
- GI50 (PC-3): > 100 µM (inactive)
- GI50 (HCC 2998): > 100 µM (inactive)
- GI50 (SF-295): > 100 µM (inactive)
- GI50 (HOP-92): > 100 µM (inactive)
- GI50 (DU-145): > 100 µM (inactive)
- GI50 (MCF7): > 100 µM (inactive)
- GI50 (SK-OV-3): > 100 µM (inactive)
- GI50 (T47D): > 100 µM (inactive)
- GI50 (OVCAR-8): > 100 µM (inactive)
- GI50 (HT-29): > 100 µM (inactive)
- GI50 (UACC-257): > 100 µM (inactive)
- GI50 (LOX IMVI): > 100 µM (inactive)
- GI50 (NCI-H23): > 100 µM (inactive)
- GI50 (SNB-75): > 100 µM (inactive)
- GI50 (SN12C): > 100 µM (inactive)
- GI50 (SK-MEL-2): > 100 µM (inactive)
- GI50 (EKVX): > 100 µM (inactive)
- GI50 (CAKI-1): > 100 µM (inactive)
- GI50 (SNB-19): > 100 µM (inactive)
- GI50 (OVCAR-4): > 100 µM (inactive)
- GI50 (SW-620): > 100 µM (inactive)
- GI50 (M14): > 100 µM (inactive)
- GI50 (SK-MEL-28): > 100 µM (inactive)
- GI50 (UACC-62): > 100 µM (inactive)
- GI50 (U-251): > 100 µM (inactive)
- GI50 (K562): > 100 µM (inactive)
- GI50 (ACHN): > 100 µM (inactive)
- GI50 (UO-31): > 100 µM (inactive)
- GI50 (MDA-N): > 100 µM (inactive)
- GI50 (SR): > 100 µM (inactive)
- GI50 (BT-549): > 100 µM (inactive)
- GI50 (OVCAR-3): > 100 µM (inactive)
- GI50 (HCT-116): > 100 µM (inactive)
- GI50 (786-0): > 100 µM (inactive)
- GI50 (HOP-62): > 100 µM (inactive)
- GI50 (MOLT-4): 51.4 µM (inactive)
- GI50 (A549): > 100 µM (inactive)
- GI50 (OVCAR-5): > 100 µM (inactive)
- GI50 (HCT-15): > 100 µM
- GI50 (A498): > 100 µM (inactive)

Compound: Cc1cc(N(CCC#N)CCC#N)ccc1/C=N/NC(=O)c1cc(Cl)ccc1O
- GI50 (SF-539): > 100 µM (inactive)
- GI50 (IGROV-1): > 100 µM (inactive)
- GI50 (MDA-MB-231): > 100 µM (inactive)
- GI50 (NCI-H226): > 100 µM (inactive)
- GI50 (NCI/ADR-RES): > 100 µM (inactive)
- GI50 (NCI-H460): > 100 µM (inactive)
- GI50 (MDA-MB-435): > 100 µM (inactive)
- GI50 (PC-3): > 100 µM (inactive)
- GI50 (HCC 2998): > 100 µM (inactive)
- GI50 (CCRF-CEM): > 100 µM (inactive)
- GI50 (SF-295): 54.7 µM (inactive)
- GI50 (DU-145): > 100 µM (inactive)
- GI50 (MCF7): > 100 µM (inactive)
- GI50 (SK-OV-3): > 100 µM (inactive)
- GI50 (T47D): > 100 µM (inactive)
- GI50 (OVCAR-8): > 100 µM (inactive)
- GI50 (HT-29): > 100 µM (inactive)
- GI50 (UACC-257): > 100 µM (inactive)
- GI50 (SF-268): 72.6 µM (inactive)
- GI50 (NCI-H23): > 100 µM (inactive)
- GI50 (SNB-75): 34.1 µM (inactive)
- GI50 (SN12C): > 100 µM (inactive)
- GI50 (SK-MEL-2): > 100 µM (inactive)
- GI50 (EKVX): > 100 µM (inactive)
- GI50 (CAKI-1): > 100 µM (inactive)
- GI50 (NCI-H522): 37.3 µM (inactive)
- GI50 (RXF 393): > 100 µM (inactive)
- GI50 (OVCAR-4): > 100 µM (inactive)
- GI50 (Malme-3M): > 100 µM (inactive)
- GI50 (M14): > 100 µM (inactive)
- GI50 (UACC-62): > 100 µM (inactive)
- GI50 (U-251): 49.3 µM (inactive)
- GI50 (COLO 205): > 100 µM (inactive)
- GI50 (TK-10): > 100 µM (inactive)
- GI50 (MDA-N): > 100 µM (inactive)
- GI50 (SR): > 100 µM (inactive)
- GI50 (OVCAR-3): > 100 µM (inactive)
- GI50 (HCT-116): > 100 µM (inactive)
- GI50 (786-0): > 100 µM (inactive)
- GI50 (Hs-578T): 59.7 µM (inactive)
- GI50 (HL-60): 69.2 µM (inactive)
- GI50 (HOP-62): 60.3 µM (inactive)
- GI50 (MOLT-4): 36.9 µM (inactive)
- GI50 (A549): > 100 µM (inactive)
- GI50 (OVCAR-5): > 100 µM (inactive)
- GI50 (HCT-15): > 100 µM
- GI50 (A498): > 100 µM (inactive)
- GI50 (SK-MEL-5): > 100 µM (inactive)
